According to BigSolDB 2.1:

C1OCOCO1
solubility (mole fraction)
Details	in dimethoxymethane	in ethanol	in isopropanol	in methanol
288.15 K	0.32	0.136	0.17	0.167
293.15 K	0.371	0.175	0.213	0.21
297.15 K	0.416	–	–	–
298.15 K	–	0.228	0.268	0.26
300.15 K	0.452	–	–	–
303.15 K	0.489	0.29	0.331	0.318
306.15 K	0.527	–	–	–
308.15 K	–	0.362	0.417	0.398
309.15 K	0.567	–	–	–
312.15 K	0.608	–	–	–
313.15 K	–	0.457	0.511	0.517
318.15 K	–	0.591	0.643	0.645
321.15 K	–	–	–	0.8
323.15 K	–	0.74	0.793	–
328.15 K	–	0.913	0.945	–
